Reference: publication PMC8720282 (ACS chemical biology, 2021)

Tested on: defibrinated rabbit red blood cells
Assay: Hemolysis assay
Type: cell-based
Settings: defibrinated rabbit RBCs, triplicate on three separate days

CC(C)(C)CC(C)(C)c1ccc(OCCO)cc1 [Triton X]
hemolysis in THY media alone: significant degree of hemolysis
